The values below are quoted from earlier work in patent publication US20130338095A1, “Chemosensory Receptor Ligand-Based Therapies” (ELCELYX THERAPEUTICS, INC., priority 2010, published 2013).

The conditions of series [1]: bitter phytonutrients in common plant foods.
For another series, the system named is GLP-1. To be noted: rats.
The target in a further series is T1, sweet receptor (Homo sapiens, UniProt Q7RTX0+Q8TE23).
T1 sequence (Q8TE23 20-839): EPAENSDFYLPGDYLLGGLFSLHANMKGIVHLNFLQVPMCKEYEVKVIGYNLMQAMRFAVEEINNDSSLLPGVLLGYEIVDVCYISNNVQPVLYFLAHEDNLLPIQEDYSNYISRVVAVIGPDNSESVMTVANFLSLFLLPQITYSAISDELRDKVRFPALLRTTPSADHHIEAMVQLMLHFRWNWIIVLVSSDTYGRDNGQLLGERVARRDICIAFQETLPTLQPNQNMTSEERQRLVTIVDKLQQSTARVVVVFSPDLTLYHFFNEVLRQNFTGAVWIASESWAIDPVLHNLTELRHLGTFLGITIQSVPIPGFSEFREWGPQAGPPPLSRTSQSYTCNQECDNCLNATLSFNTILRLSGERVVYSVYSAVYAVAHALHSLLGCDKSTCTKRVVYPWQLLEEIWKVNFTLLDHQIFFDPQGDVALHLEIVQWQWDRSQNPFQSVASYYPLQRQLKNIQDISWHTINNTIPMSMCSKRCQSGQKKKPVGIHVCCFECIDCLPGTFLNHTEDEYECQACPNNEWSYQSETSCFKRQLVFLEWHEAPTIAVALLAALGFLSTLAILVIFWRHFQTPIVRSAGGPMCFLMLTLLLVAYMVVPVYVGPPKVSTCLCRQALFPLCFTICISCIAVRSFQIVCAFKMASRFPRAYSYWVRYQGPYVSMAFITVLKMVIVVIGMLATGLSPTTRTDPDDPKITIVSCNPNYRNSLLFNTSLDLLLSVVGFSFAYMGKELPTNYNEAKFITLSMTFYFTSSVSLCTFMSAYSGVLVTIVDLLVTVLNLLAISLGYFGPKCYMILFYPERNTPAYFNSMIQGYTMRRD
T1 sequence (Q7RTX0 21-852): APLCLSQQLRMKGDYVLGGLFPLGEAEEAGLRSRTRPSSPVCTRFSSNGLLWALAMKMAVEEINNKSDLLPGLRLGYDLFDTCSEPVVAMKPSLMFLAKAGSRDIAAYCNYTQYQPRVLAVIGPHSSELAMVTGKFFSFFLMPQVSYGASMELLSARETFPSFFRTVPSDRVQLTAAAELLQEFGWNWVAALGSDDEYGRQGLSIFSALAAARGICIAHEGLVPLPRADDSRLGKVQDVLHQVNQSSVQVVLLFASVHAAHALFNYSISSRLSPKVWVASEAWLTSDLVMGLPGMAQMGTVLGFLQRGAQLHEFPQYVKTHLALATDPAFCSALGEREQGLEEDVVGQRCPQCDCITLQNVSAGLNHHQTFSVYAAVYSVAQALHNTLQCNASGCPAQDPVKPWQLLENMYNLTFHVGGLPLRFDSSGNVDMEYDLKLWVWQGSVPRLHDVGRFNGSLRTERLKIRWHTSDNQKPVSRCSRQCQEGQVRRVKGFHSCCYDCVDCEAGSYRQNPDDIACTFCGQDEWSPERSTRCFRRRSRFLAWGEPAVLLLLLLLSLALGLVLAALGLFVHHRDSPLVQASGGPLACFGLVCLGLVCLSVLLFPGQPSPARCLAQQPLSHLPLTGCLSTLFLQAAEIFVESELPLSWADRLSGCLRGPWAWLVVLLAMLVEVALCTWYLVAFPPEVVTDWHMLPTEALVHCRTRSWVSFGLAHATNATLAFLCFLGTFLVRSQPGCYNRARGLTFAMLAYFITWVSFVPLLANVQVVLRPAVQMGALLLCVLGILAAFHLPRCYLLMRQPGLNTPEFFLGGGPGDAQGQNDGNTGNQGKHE
The settings on record: relative sweetness on a weight comparison basis to sucrose (=1.0).

For series [2] the following is noted: patients with jejunostomy.

As to `O=C(O[C@@H]1Cc2c(O)cc(O)cc2O[C@@H]1c1ccc(O)c(O)c1)c1cc(O)c(O)c(O)c1` [Epicatechin gallate], the Taste quality result in series [1] is “Bitter and astringent”.
For `C[S+]([O-])CCCCN=C=S` (centres unmarked) [4-Methylsulfinyl butyl isothiocyanate], the Taste quality result in series [1] is “Acrid mustard oils”.
Regarding `C[S+]([O-])CCCN=C=S` (centres unmarked) [3-Methyl-sulfinylpropyl isothiocyanate], in series [1], the Taste quality result is given as “Acrid mustard oils”.
For the molecule `C[C@@H]1O[C@@H](O[C@H]2[C@H](Oc3cc(O)c4c(c3)O[C@H](c3ccc(O)cc3)CC4=O)O[C@H](CO)[C@@H](O)[C@@H]2O)[C@H](O)[C@H](O)[C@H]1O` [Naringin], the Taste quality result in series [1] is reported as “Bitter”.
Regarding `C=CCC(=NOS(=O)(=O)O)S[C@@H]1O[C@H](CO)[C@@H](O)[C@H](O)[C@H]1O` (stereo in doubt) [Sinigrin], in series [1], the Taste quality result is “Bitter”.
For `COc1ccc(-c2cc(=O)c3c(OC)c(OC)c(OC)c(OC)c3o2)cc1` [Tangeretin], the Taste quality entry in series [1] was “Bitter”.
Regarding `O=c1c(-c2ccc(O)cc2)coc2cc(O)ccc12` [daidzein], the Taste quality entry in series [1] is “Bitter or astringent”.
Consider `CC1(C)O[C@H]2CC(=O)OC[C@]23[C@H]2CC[C@@]4(C)[C@H](c5ccoc5)OC(=O)[C@H]5O[C@]54[C@]2(C)C(=O)C[C@@H]13` [Limonin], for which the Taste quality entry in series [1] is “Bitter”.
Consider `CC1(C)O[C@H]2CC(=O)OC[C@]23[C@H]2CC[C@@](C)([C@@H](O[C@@H]4O[C@H](CO)[C@@H](O)[C@H](O)[C@H]4O)c4ccoc4)[C@@]4(O[C@@H]4C(=O)O)[C@]2(C)C(=O)C[C@@H]13` [Limonin glucoside], for which the Taste quality result in series [1] was “Tasteless”.
Take `O=c1c(-c2ccc(O)cc2)coc2cc(O[C@@H]3O[C@H](CO)[C@@H](O)[C@H](O)[C@H]3O)cc(O)c12` [Genistin]: the Taste quality entry in series [1] is recorded as “Astringent”.
Take `O=c1c(-c2ccc(O)cc2)coc2cc(O)cc(O)c12` [Genistein]: the Taste quality result in series [1] was “Bitter or astringent”.
Take `O=S(=O)(O)ON=C(Cc1c[nH]c2ccccc12)S[C@@H]1O[C@H](CO)[C@@H](O)[C@H](O)[C@H]1O` [Glucobrassicin]: in series [1], the Taste quality entry was “Bitter”.
Regarding `C=CC1CNC(=S)O1` (centres unmarked) [Goitrin 5-vinyl-2-oxazolidine thione, 5-vinyl-2-oxazolidine thione], in series [1], the Taste quality entry is recorded as “Bitter”.
For `OCCN1C[C@H](O)[C@@H](O)[C@H](O)[C@H]1CO` [miglitol], in the series with GLP-1, the “increase in GLP-1 with administration of a DPP-IV inhibitor” value is given as “synergistic”.
Consider `O=c1c(O)c(-c2ccc(O)c(O)c2)oc2cc(O)cc(O)c12` [Quercetin], for which the Taste quality entry in series [1] was “Bitter”.
On to `COc1ccc(-c2cc(=O)c3c(OC)c(OC)c(OC)c(OC)c3o2)cc1OC` [Nobiletin], for which, in series [1], the Taste quality result is reported as “Bitter”.
For the molecule `CC1(C)[C@@H](O[C@@H]2O[C@H](C(=O)O)[C@@H](O)[C@H](O)[C@H]2O[C@@H]2O[C@H](C(=O)O)[C@@H](O)[C@H](O)[C@H]2O)CC[C@]2(C=O)[C@H]3CC[C@@H]4C5=C[C@@](C)(C(=O)O)CC[C@]5(C)CC[C@@]4(C)[C@]3(C)CC[C@@H]12` [Periandrin I], the Sweetness/potency at sweet receptor was 90.
For `Oc1cc2c(cc1O)[C@@H]1c3ccc(O)c(O)c3OC[C@]1(O)C2` [Hematoxylin], the Sweetness/potency on sweet receptor was 120.
In the case of “GLP-2: gut hormone, glucagon-like peptide 2 (HADGSFSDEMNTILDNLAARDFINWLIQTKITD; Glucagon-like peptide 2; UniProt P01275 146-178, looked up)”, in series [2], the “intestinal absorption of energy” value was “improve” and the “intestinal wet weight absorption” value was “improve”.
On to `CC(=O)O[C@H]1CC(=O)OC(C)(C)[C@@H]2CC(=O)[C@]3(C)[C@H](CC[C@@]4(C)[C@H](c5ccoc5)OC(=O)[C@H]5O[C@]543)[C@@]12C` [Nomilin], for which the Taste quality entry in series [1] was “Bitter”.
On to `CC1(C(=O)O)C=C2C3CCC4C5(CO)CCC(OC6OC(C(=O)O)C(O)C(O)C6OC6OC(C(=O)O)C(O)C(O)C6O)C(C)(C)C5CCC4(C)C3(C)CCC2(C)CC1` (centres unmarked) [Periandrin III], for which the Sweetness/potency on sweet receptor is 92.
Regarding `COc1ccc([C@H]2Cc3cccc(O)c3C(=O)O2)cc1O` [Phyllodulcin], the Sweetness/potency at sweet receptor is reported as 400.
For `CC1=CC[C@@H]([C@@H](C)[C@H]2CC[C@@]3(C)[C@@H]4CC[C@H]5[C@](C)(C(=O)O)[C@@H](O[C@@H]6O[C@H](CO)[C@@H](O)[C@H](O)[C@H]6O)CC[C@@]56C[C@@]46CC[C@]23C)OC1=O` [Abrusoside A], the Sweetness/potency at sweet receptor is recorded as 30.
Regarding `COc1ccc(-c2cc(=O)c3c(OC)c(OC)c(OC)cc3o2)cc1OC` [Sinensetin], the Taste quality result in series [1] was “Bitter”.
Take Periandrin IV: on sweet receptor, the Sweetness/potency is reported as 85.
Turning to `CC1(C)[C@@H](O[C@H]2O[C@H](C(=O)O)[C@@H](O)[C@H](O)[C@H]2O[C@@H]2OC[C@H](O)[C@H](O)[C@H]2O)CC[C@]2(C)[C@H]3C(=O)C=C4[C@@H]5C[C@@](C)(C(=O)O)CC[C@]5(C)CC[C@@]4(C)[C@]3(C)CC[C@@H]12` [Araboglycyrrhizin], on sweet receptor, the Sweetness/potency is reported as 150.
Take `C=C[C@H](O)CC(=NOS(=O)(=O)O)S[C@@H]1O[C@H](CO)[C@@H](O)[C@H](O)[C@H]1O` [Progoitrin]: the Taste quality result in series [1] was “Bitter”.
`Oc1ccc([C@H]2Oc3c(c(O)cc4c3[C@H]3c5c(O)cc(O)cc5O[C@@](c5ccc(O)cc5)(O4)[C@@H]3O)[C@H](c3c(O)cc(O)c4c3O[C@H](c3ccc(O)cc3)[C@@H](O)C4)[C@H]2O)cc1` [Selligueain A]: the Sweetness/potency at sweet receptor is 35.
Turning to Thaumatin, the Sweetness/potency at sweet receptor is 1,600.
Scandenoside R6: the Sweetness/potency at sweet receptor was 54.
For the molecule Polypodoside A, the Sweetness/potency at sweet receptor is recorded as 600.
For `O=c1c(-c2ccc(O)cc2)coc2cc(O[C@@H]3O[C@H](CO)[C@@H](O)[C@H](O)[C@H]3O)ccc12` [Daidzin], the Taste quality entry in series [1] is listed as “Astringent”.
Consider `C=C(C)C1CCC2(C)C(CC(OC3OCC(O)C(O)C3O)C3C(C(C)(O)C/C=C/C(C)(C)O)CCC32C)C1(C)CCC(=O)O` (centres unmarked) [Pterocaryoside B], for which the Sweetness/potency on sweet receptor was 100.
In the case of “Brazzein (QDKCKKVYENYPVSKCQLANQCNYDCKLDKHARSGECFYDEKRNLQCICDYCEY; UniProt P56552 1-54, looked up) [sweet protein from Pentadiplandra brazzeana]”, the Sweetness/potency with sweet receptor is 2,000.
